The test system of this assay is Mycobacterium tuberculosis Erdman. Nature of the assay: Biofilm inhibition of Mycobacterium tuberculosis (ocular inspection). Format: cell-based. The following applies: for inhibition at 10 µM / inhibition at 25 µM / inhibition at 50 µM / inhibition at 100 µM: biofilm inhibition, average of three or more measurements (100/50/0% scoring); for inhibition at 10 µM: read-out: Average % Inhibition at 10 μM; for inhibition at 25 µM: read-out: Average % Inhibition at 25 μM; for minimal effective concentration: concentration at which full biofilm inhibition took place, replicate determinations in one cell.

As for `Cc1ccc(Cc2cc(=O)n3c(c2C2CC2)SC[C@H]3C(=O)O)c2ccccc12` [Example 4, (3R)-7-Cyclopropyl-6-[(4-methyl-1-naphthyl)methyl]-4-oxo-1-thia-3a-aza-3-indancarboxylic acid], the inhibition at 10 µM was determined as 100%, the inhibition at 25 µM turned out to be 100%, the inhibition at 50 µM worked out at 100% and the minimal effective concentration is 25 µM.
As for `O=C(O)[C@@H]1CSc2c(C3CC3)c(Cc3cccc4ccccc34)c(Br)c(=O)n21` [Example 41, (3R)-5-Bromo-7-cyclopropyl-6-[(1-naphthyl)methyl]-4-oxo-1-thia-3a-aza-3-indancarboxylic acid], the inhibition at 10 µM amounted to 25%, the inhibition at 25 µM is 62%, testing at 50 µM gave an inhibition of 88% and the inhibition at 100 µM was 100%.
For `O=C(O)C1CS(=O)(=O)c2c(C3CC3)c(Cc3cccc4ccccc34)cc(=O)n21` (centres unmarked) [Example 42, 7-Cyclopropyl-6-[(1-naphthyl)methyl]-1,1-dioxo-4-oxo-1-thia-3a-aza-3-indancarboxylic acid], the inhibition at 10 µM was found to be 50%, the inhibition at 25 µM is 12% and the inhibition at 50 µM worked out at 12%.
For `O=C(O)c1c(-c2ccsc2)sc2c(C3CC3)c(Cc3cccc4ccccc34)cc(=O)n12` [Example 6, 5-Cyclopropyl-4-[(1-naphthyl)methyl]-2-oxo-8-(3-thienyl)-7-thia-1-azabicyclo[4.3.0]nona-3,5,8-triene-9-carboxylic acid], the inhibition at 10 µM came out at 50%, the inhibition at 25 µM turned out to be 88%, the inhibition at 50 µM was 100% and the inhibition at 100 µM is 100%. This molecule also showed a minimal effective concentration of 30 µM.
With `Cc1cccc(-c2sc3c(C4CC4)c(Cc4cccc5ccccc45)cc(=O)n3c2C(=O)O)c1` [Example 14, 5-Cyclopropyl-4-[(1-naphthyl)methyl]-2-oxo-8-(m-tolyl)-7-thia-1-azabicyclo[4.3.0]nona-3,5,8-triene-9-carboxylic acid], the inhibition at 10 µM worked out at 0%, the inhibition at 25 µM was 88% and testing at 50 µM gave an inhibition of 100%.
`CC1(C)Sc2c(C3CC3)c(Cc3cccc4ccccc34)cc(=O)n2[C@@H]1C(=O)O` [Example 46, (3R)-7-Cyclopropyl-2,2-dimethyl-6-[(1-naphthyl)methyl]-4-oxo-1-thia-3a-aza-3-indancarboxylic acid]: the inhibition at 25 µM was 62% and the inhibition at 50 µM came out at 38%.
On to `O=C(NNC(=O)C1CSc2c(C3CC3)c(Cc3cccc4ccccc34)cc(=O)n21)c1ccncc1` (centres unmarked) [Example 38, {7-Cyclopropyl-6-[(1-naphthyl)methyl]-4-oxo-1-thia-3a-aza-3-indanyl}(2-isonicotinoylhydrazino)formaldehyde], for which the inhibition at 10 µM is 100%, the inhibition at 25 µM worked out at 100%, the inhibition at 50 µM came to 100% and the minimal effective concentration amounted to 25 µM.
As for `CC(C)c1c(Cc2cccc3ccccc23)cc(=O)n2c1SC[C@H]2C(=O)O` [Example 23, (3R)-7-Isopropyl-6-[(1-naphthyl)methyl]-4-oxo-1-thia-3a-aza-3-indancarboxylic acid], the inhibition at 25 µM is 12% and the inhibition at 50 µM was 50%.
For the molecule `O=C(O)c1c(-c2c[nH]nn2)sc2c(C3CC3)c(Cc3cccc4ccccc34)cc(=O)n12` [Example 18, 5-Cyclopropyl-4-[(1-naphthyl)methyl]-2-oxo-8-(1H-1,2,3-triazol-4-yl)-7-thia-1-azabicyclo[4.3.0]nona-3,5,8-triene-9-carboxylic acid], the inhibition at 10 µM came to 12%, the inhibition at 25 µM worked out at 12% and the inhibition at 50 µM was determined as 38%.
For `Cc1c(Cc2cccc3ccccc23)cc(=O)n2c1SC[C@H]2C(=O)O` [Example 10, (3R)-7-Methyl-6-[(1-naphthyl)methyl]-4-oxo-1-thia-3a-aza-3-indancarboxylic acid], the inhibition at 10 µM came to 69%, the inhibition at 25 µM was determined as 100% and at 50 µM the inhibition was 100%.
In the case of `CO[C@H]1Sc2c(C3CC3)c(Cc3cccc4ccccc34)cc(=O)n2[C@@H]1C(=O)O` [Example 35, (2S,3R)-7-Cyclopropyl-2-methoxy-6-[(1-naphthyl)methyl]-4-oxo-1-thia-3a-aza-3-indancarboxylic acid], the inhibition at 25 µM is 25%, the inhibition at 100 µM was 75% and the minimal effective concentration came to 50 µM.
As to `Cc1cccc(Cc2cc(=O)n3c(c2C2CC2)SC[C@H]3C(=O)O)c1C` [Example 9, (3R)-7-Cyclopropyl-4-oxo-6-[(2,3-xylyl)methyl]-1-thia-3a-aza-3-indancarboxylic acid], the inhibition at 10 µM came out at 50%, the inhibition at 25 µM came out at 87%, the inhibition at 50 µM amounted to 87% and the minimal effective concentration was determined as 25 µM.
In the case of `O=C(O)c1c(Cc2ccccc2)sc2c(C3CC3)c(Cc3cccc4ccccc34)cc(=O)n12` [Example 19, 8-Benzyl-5-cyclopropyl-4-[(1-naphthyl)methyl]-2-oxo-7-thia-1-azabicyclo[4.3.0]nona-3,5,8-triene-9-carboxylic acid], the inhibition at 10 µM amounted to 0%, the inhibition at 25 µM is 0%, the inhibition at 50 µM worked out at 88% and at 100 µM the inhibition was 100%.
In turn, `O=c1cc(Cc2cccc3ccccc23)c(C2CC2)c2n1CCS2` [Example 31, 7-Cyclopropyl-6-[(1-naphthyl)methyl]-1-thia-3a-aza-4-indanone] displayed an inhibition at 50 µM of 100%.
Consider `O=C(O)[C@@H]1CSc2c(C3CC3)c(Cc3ccc4ccccc4c3)cc(=O)n21` [Example 15, (3R)-7-Cyclopropyl-6-[(2-naphthyl)methyl]-4-oxo-1-thia-3a-aza-3-indancarboxylic acid], for which the inhibition at 10 µM is 87%, the inhibition at 25 µM stood at 100%, testing at 50 µM gave an inhibition of 100% and the minimal effective concentration worked out at 50 µM.
Take `CC(C)COc1c(Cc2cccc3ccccc23)cc(=O)n2c1SC[C@H]2C(=O)O` [Example 48, (3R)-7-Isobutoxy-6-[(1-naphthyl)methyl]-4-oxo-1-thia-3a-aza-3-indancarboxylic acid]: testing at 50 µM gave an inhibition of 50%.
With `O=C(O)C1C[S+]([O-])c2c(C3CC3)c(Cc3cccc4ccccc34)cc(=O)n21` (centres unmarked) [Example 44, 7-Cyclopropyl-6-[(1-naphthyl)methyl]-1-oxo-4-oxo-1-thia-3a-aza-3-indancarboxylic acid], the inhibition at 10 µM worked out at 25%, the inhibition at 25 µM amounted to 75% and the inhibition at 50 µM worked out at 100%.
`N[C@@H]1CSc2c(C3CC3)c(Cc3cccc4ccccc34)cc(=O)n21` [Example 33, (3S)-3-Amino-7-cyclopropyl-6-[(1-naphthyl)methyl]-1-thia-3a-aza-4-indanone] gave a minimal effective concentration of 25 µM.
Turning to `O=C(O)[C@@H]1CSc2c(C3CC3)c(Cc3ccc(Cl)cc3)cc(=O)n21` [Example 25, (3R)-6-[(p-Chlorophenyl)methyl]-7-cyclopropyl-4-oxo-1-thia-3a-aza-3-indancarboxylic acid], the inhibition at 25 µM amounted to 12% and at 50 µM the inhibition was 50%.

These data come from patent publication US20230115208A1, “RING-FUSED THIAZOLINO 2-PYRIDONES, METHODS FOR PREPARATION THEREOF AND THEIR USE IN THE TREATMENT AND/OR PREVENTION OF TUBERCULOSIS” (QURETECH BIO AB, priority 2016, published 2023).
